These results are taken from patent US20190151312A1, “HEPARAN SULFATE BIOSYNTHESIS INHIBITORS FOR THE TREATMENT OF DISEASES” (BioMarin Pharmaceutical Inc., priority 2014, published 2019).

pIC50: −log10 of the molar value. Some results are limits rather than exact numbers.

This experiment relates to GM01896 cells (MPS II dermal fibroblasts). Nature of the experiment: Assay 1: MPS cellular assay, MPS II (heparan sulfate disaccharide biomarkers by LC-MS). The format is cell-based, human. Conditions: Homo sapiens, Fibroblast, Assay 1 for MPS II, heparan sulfate disaccharide biomarkers (I2a4, I2a6, I2S0 and/or I2S6), read-out: IC50 Range. Summed up:
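Heparan sulfate disaccharide biomarkers quantified by LC-MS after heparinase I/II/III digestion and isotopic aniline labelling, using GM01896 MPS II fibroblasts exposed to compound (at or below 30 μM, 4-21 days). Values given as IC50 by curve fitting; cell viability checked with alamar blue or ATP.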
Broadly, the pIC50 is the negative decadic logarithm of the IC50, by convention in mol/L. Consider `CCc1nn(C)c2cc(-c3cc(Nc4ccc(Cl)cc4)nc(N4CCOCC4)n3)ccc12` [(4-chlorophenyl)[6-(3-ethyl-1-methyl(1H-indazol-6-yl))-2-morpholin-4-ylpyrimidin-4-yl]amine], for which the negative-log IC50 (pIC50) is 5.30 to 6.00. Take `CCc1nn(C)c2cc(-c3cc(Nc4ccc(Cl)cc4)nc(N4CCOCC4)n3)cnc12` [(4-chlorophenyl)[6-(3-ethyl-1-methylpyrazolo[4,5-b]pyridin-6-yl)-2-morpholin-4-ylpyrimidin-4-yl]amine]: the pIC50 is 5.30 to 6.00.

As for `Clc1ccc(Nc2cc(-c3ccc4c(cnn4CCN4CCOCC4)c3)nc(N3CCOCC3)n2)cc1` [(4-chlorophenyl){2-morpholin-4-yl-6-[1-(2-morpholin-4-ylethyl)(1H-indazol-5-yl)]pyrimidin-4-yl}amine], the pIC50 was 5.30 to 6.00. In the case of `Clc1ccc(Nc2cc(-c3ccc4cnn(CCN5CCOCC5)c4c3)nc(N3CCOCC3)n2)cc1` [(4-chlorophenyl){2-morpholin-4-yl-6-[1-(2-morpholin-4-ylethyl)(1H-indazol-6-yl)]pyrimidin-4-yl}amine], the pIC50 is 6.00 to 6.30. As to `Clc1ccc(Nc2cc(-c3ccc4c(c3)ncn4CCN3CCOCC3)nc(N3CCOCC3)n2)cc1` [(4-chlorophenyl){2-morpholin-4-yl-6-[1-(2-morpholin-4-ylethyl)benzimidazol-5-yl]pyrimidin-4-yl}amine], the pIC50 is 6.00 to 6.30.

Turning to `Clc1ccc(Nc2cc(-c3ccc4ncn(CCN5CCOCC5)c4c3)nc(N3CCOCC3)n2)cc1` [(4-chlorophenyl){2-morpholin-4-yl-6-[1-(2-morpholin-4-ylethyl)benzimidazol-6-yl]pyrimidin-4-yl}amine], the pIC50 is greater than 6.30.

On to `Clc1ccc(Nc2cc(-c3ccc4cnn(CCN5CCCC5)c4c3)nc(N3CCOCC3)n2)cc1` [(4-chlorophenyl){2-morpholin-4-yl-6-[1-(2-pyrrolidinylethyl)(1H-indazol-6-yl)]pyrimidin-4-yl}amine], for which the pIC50 was 5.30 to 6.00. Under `Clc1ccc(Nc2cc(-c3ccc4c(c3)ncn4CCN3CCCC3)nc(N3CCOCC3)n2)cc1` [(4-chlorophenyl){2-morpholin-4-yl-6-[1-(2-pyrrolidinylethyl)benzimidazol-5-yl]pyrimidin-4-yl}amine] stands 5.30 to 6.00; under `Clc1ccc(Nc2cc(-c3ccc4ncn(CCN5CCCC5)c4c3)nc(N3CCOCC3)n2)cc1` [(4-chlorophenyl){2-morpholin-4-yl-6-[1-(2-pyrrolidinylethyl)benzimidazol-6-yl]pyrimidin-4-yl}amine], 6.00 to 6.30. In the case of `Clc1ccc(Nc2cc(-c3ccc4c(cnn4CCCN4CCOCC4)c3)nc(N3CCOCC3)n2)cc1` [(4-chlorophenyl){2-morpholin-4-yl-6-[1-(3-morpholin-4-ylpropyl)(1H-indazol-5-yl)]pyrimidin-4-yl}amine], the pIC50 was 5.30 to 6.00.

On to `Clc1ccc(Nc2cc(-c3ccc4cnn(CCCN5CCOCC5)c4c3)nc(N3CCOCC3)n2)cc1` [(4-chlorophenyl){2-morpholin-4-yl-6-[1-(3-morpholin-4-ylpropyl)(1H-indazol-6-yl)]pyrimidin-4-yl}amine], for which the negative logarithm of the IC50 (pIC50) was 5.30 to 6.00. As for `Clc1ccc(Nc2cc(-c3ccc4c(c3)ncn4CCCN3CCOCC3)nc(N3CCOCC3)n2)cc1` [(4-chlorophenyl){2-morpholin-4-yl-6-[1-(3-morpholin-4-ylpropyl)benzimidazol-5-yl]pyrimidin-4-yl}amine], the pIC50 was 5.30 to 6.00. Under `Clc1ccc(Nc2cc(-c3ccc4ncn(CCCN5CCOCC5)c4c3)nc(N3CCOCC3)n2)cc1` [(4-chlorophenyl){2-morpholin-4-yl-6-[1-(3-morpholin-4-ylpropyl)benzimidazol-6-yl]pyrimidin-4-yl}amine] stands 6.00 to 6.30; under `Clc1ccc(Nc2cc(-c3ccc4cnn(CCCN5CCCC5)c4c3)nc(N3CCOCC3)n2)cc1` [(4-chlorophenyl){2-morpholin-4-yl-6-[1-(3-pyrrolidinylpropyl)(1H-indazol-6-yl)]pyrimidin-4-yl}amine], 5.30 to 6.00. Under `Clc1ccc(Nc2cc(-c3ccc4ncn(CCCN5CCCC5)c4c3)nc(N3CCOCC3)n2)cc1` [(4-chlorophenyl){2-morpholin-4-yl-6-[1-(3-pyrrolidinylpropyl)benzimidazol-6-yl]pyrimidin-4-yl}amine] stands 6.00 to 6.30; under `Cn1nc(CCN2CCOCC2)c2ccc(-c3nc(N4CCOCC4)nc(Nc4ccc(Cl)cc4)c3F)cc21` [(4-chlorophenyl){5-fluoro-6-[1-methyl-3-(2-morpholin-4-ylethyl)(1H-indazol-6-yl)]-2-morpholin-4-ylpyrimidin-4-yl}amine], 5.30 to 6.00. Under `COCCn1ncc2ccc(-c3cc(Nc4ccc(Cl)cc4)nc(N4CCOCC4)n3)cc21` [(4-chlorophenyl){6-[1-(2-methoxyethyl)(1H-indazol-6-yl)]-2-morpholin-4-ylpyrimidin-4-yl}amine] stands 5.30 to 6.00; under `COCCn1cnc2ccc(-c3cc(Nc4ccc(Cl)cc4)nc(N4CCOCC4)n3)cc21` [(4-chlorophenyl){6-[1-(2-methoxyethyl)benzimidazol-6-yl]-2-morpholin-4-ylpyrimidin-4-yl}amine], 6.00 to 6.30; under `Clc1ccc(Nc2cc(-c3ccc4cnn(CC5CC5)c4c3)nc(N3CCOCC3)n2)cc1` [(4-chlorophenyl){6-[1-(cyclopropylmethyl)(1H-indazol-6-yl)]-2-morpholin-4-ylpyrimidin-4-yl}amine], 5.30 to 6.00.

On to `Clc1ccc(Nc2cc(-c3ccc4c(c3)ncn4CC3CC3)nc(N3CCOCC3)n2)cc1` [(4-chlorophenyl){6-[1-(cyclopropylmethyl)benzimidazol-5-yl]-2-morpholin-4-ylpyrimidin-4-yl}amine], for which the pIC50 is 6.00 to 6.30.

`Clc1ccc(Nc2cc(-c3ccc4ncn(CC5CC5)c4c3)nc(N3CCOCC3)n2)cc1` [(4-chlorophenyl){6-[1-(cyclopropylmethyl)benzimidazol-6-yl]-2-morpholin-4-ylpyrimidin-4-yl}amine]: the pIC50 was 6.00 to 6.30. As for `Cn1c(CCN2CCOCC2)nc2ccc(-c3cc(Nc4ccc(Cl)cc4)nc(N4CCOCC4)n3)cc21` [(4-chlorophenyl){6-[1-methyl-2-(2-morpholin-4-ylethyl)benzimidazol-6-yl]-2-morpholin-4-ylpyrimidin-4-yl}amine], the pIC50 is greater than 6.30. For `Cn1c(CCN2CCCC2)nc2ccc(-c3cc(Nc4ccc(Cl)cc4)nc(N4CCOCC4)n3)cc21` [(4-chlorophenyl){6-[1-methyl-2-(2-pyrrolidinylethyl)benzimidazol-6-yl]-2-morpholin-4-ylpyrimidin-4-yl}amine], the pIC50 is greater than 6.30. With `Cn1c(CCCN2CCOCC2)nc2ccc(-c3cc(Nc4ccc(Cl)cc4)nc(N4CCOCC4)n3)cc21` [(4-chlorophenyl){6-[1-methyl-2-(3-morpholin-4-ylpropyl)benzimidazol-6-yl]-2-morpholin-4-ylpyrimidin-4-yl}amine] the figure was 5.30 to 6.00. `Cn1c(CN2CCOCC2)nc2ccc(-c3cc(Nc4ccc(Cl)cc4)nc(N4CCOCC4)n3)cc21` [(4-chlorophenyl){6-[1-methyl-2-(morpholin-4-ylmethyl)benzimidazol-6-yl]-2-morpholin-4-ylpyrimidin-4-yl}amine]: the pIC50 is 6.00 to 6.30. As for `Cn1c(CN2CCCC2)nc2ccc(-c3cc(Nc4ccc(Cl)cc4)nc(N4CCOCC4)n3)cc21` [(4-chlorophenyl){6-[1-methyl-2-(pyrrolidinylmethyl)benzimidazol-6-yl]-2-morpholin-4-ylpyrimidin-4-yl}amine], the pIC50 was 5.30 to 6.00. Under `Cn1nc(CCN2CCOCC2)c2ccc(-c3cc(Nc4ccc(Cl)cc4)nc(N4CCOCC4)n3)cc21` [(4-chlorophenyl){6-[1-methyl-3-(2-morpholin-4-ylethyl)(1H-indazol-6-yl)]-2-morpholin-4-ylpyrimidin-4-yl}amine] stands 6.00 to 6.30. Consider `Cn1nc(CCN2CCNCC2)c2ccc(-c3cc(Nc4ccc(Cl)cc4)nc(N4CCOCC4)n3)cc21` [(4-chlorophenyl){6-[1-methyl-3-(2-piperazinylethyl)(1H-indazol-6-yl)]-2-morpholin-4-ylpyrimidin-4-yl}amine], for which the pIC50 was 5.30 to 6.00.

Turning to `Cn1nc(CCN2CCCC2)c2ccc(-c3cc(Nc4ccc(Cl)cc4)nc(N4CCOCC4)n3)cc21` [(4-chlorophenyl){6-[1-methyl-3-(2-pyrrolidinylethyl)(1H-indazol-6-yl)]-2-morpholin-4-ylpyrimidin-4-yl}amine], the pIC50 is 6.00 to 6.30.

Take `Cn1nc(CCCN2CCOCC2)c2ccc(-c3cc(Nc4ccc(Cl)cc4)nc(N4CCOCC4)n3)cc21` [(4-chlorophenyl){6-[1-methyl-3-(3-morpholin-4-ylpropyl)(1H-indazol-6-yl)]-2-morpholin-4-ylpyrimidin-4-yl}amine]: the pIC50 is 5.30 to 6.00. As for `Cn1nc(CCCN2CCCC2)c2ccc(-c3cc(Nc4ccc(Cl)cc4)nc(N4CCOCC4)n3)cc21` [(4-chlorophenyl){6-[1-methyl-3-(3-pyrrolidinylpropyl)(1H-indazol-6-yl)]-2-morpholin-4-ylpyrimidin-4-yl}amine], the pIC50 was 6.00 to 6.30.

`CN1CCN(c2nn(C)c3cc(-c4cc(Nc5ccc(Cl)cc5)nc(N5CCOCC5)n4)ccc23)CC1` [(4-chlorophenyl){6-[1-methyl-3-(4-methylpiperazinyl)(1H-indazol-6-yl)]-2-morpholin-4-ylpyrimidin-4-yl}amine]: the pIC50 was 5.30 to 6.00.

Regarding `Cn1nc(CN2CCOCC2)c2ccc(-c3cc(Nc4ccc(Cl)cc4)nc(N4CCOCC4)n3)cc21` [(4-chlorophenyl){6-[1-methyl-3-(morpholin-4-ylmethyl)(1H-indazol-6-yl)]-2-morpholin-4-ylpyrimidin-4-yl}amine], the pIC50 was 5.30 to 6.00. With `Cn1nc(CN2CCCC2)c2ccc(-c3cc(Nc4ccc(Cl)cc4)nc(N4CCOCC4)n3)cc21` [(4-chlorophenyl){6-[1-methyl-3-(pyrrolidinylmethyl)(1H-indazol-6-yl)]-2-morpholin-4-ylpyrimidin-4-yl}amine] the figure was 6.00 to 6.30. For `COCCc1nc2ccc(-c3cc(Nc4ccc(Cl)cc4)nc(N4CCOCC4)n3)cc2n1C` [(4-chlorophenyl){6-[2-(2-methoxyethyl)-1-methylbenzimidazol-6-yl]-2-morpholin-4-ylpyrimidin-4-yl}amine], the pIC50 is 6.00 to 6.30.
